Earlier results on one compound are cited in patent publication US20200397766A1, “POROUS EMBOLIZATION MICROSPHERES COMPRISING DRUGS” (VAN RIJN BEHEER B.V., priority 2018, published 2020).

With `OCCN(CCO)c1nc(N2CCCCC2)c2nc(N(CCO)CCO)nc(N3CCCCC3)c2n1` [Dipyridamole, dipyridamole], under “DMSO”, the “solubility in DMSO” value was “high solubility in DMSO”. Moreover, under “water”, the solubility in water result was “low solubility in water”.
